Measurements published in patent US20240174727A1, “LONG-ACTING NATRIURETIC PEPTIDES AND USES THEREOF” (Eli Lilly and Company, priority 2022, published 2024).
Where two headings read alike, the source gives them in different places. Numbered stars: 1 amine (or outer) side, 2 acyl side, 3 side chain; on linkers, the order of the positions; unused ones are H or OH. Bridge positions count the residues as written; N and C are the ends. Square brackets hold non-standard residues; d marks the D form. Peptide text beside a SMILES is read from it. * marks the point of attachment. C20 diacid = O=C(O)CCCCCCCCCCCCCCCCCCC(=O)*; γGlu = O=C(O)[C@H](CCC(=O)[*:2])N[*:1]; 4Pal = N[C@@H](Cc1ccncc1)C(=O)O

Biological target: T1, human NPRA (Homo sapiens, UniProt P16066)
T1 construct: Full-Length cDNA Cloning and Generation of Cell Lines Overexpressing Natriuretic Peptide Receptors (NPRs); expressed in transfected cells; host or cells: Jump-in T-Rex HEK293 cells, pJTI R4 CMV-TO MCS pA vector, tetracycline induction
T1 sequence (P16066 33-1061): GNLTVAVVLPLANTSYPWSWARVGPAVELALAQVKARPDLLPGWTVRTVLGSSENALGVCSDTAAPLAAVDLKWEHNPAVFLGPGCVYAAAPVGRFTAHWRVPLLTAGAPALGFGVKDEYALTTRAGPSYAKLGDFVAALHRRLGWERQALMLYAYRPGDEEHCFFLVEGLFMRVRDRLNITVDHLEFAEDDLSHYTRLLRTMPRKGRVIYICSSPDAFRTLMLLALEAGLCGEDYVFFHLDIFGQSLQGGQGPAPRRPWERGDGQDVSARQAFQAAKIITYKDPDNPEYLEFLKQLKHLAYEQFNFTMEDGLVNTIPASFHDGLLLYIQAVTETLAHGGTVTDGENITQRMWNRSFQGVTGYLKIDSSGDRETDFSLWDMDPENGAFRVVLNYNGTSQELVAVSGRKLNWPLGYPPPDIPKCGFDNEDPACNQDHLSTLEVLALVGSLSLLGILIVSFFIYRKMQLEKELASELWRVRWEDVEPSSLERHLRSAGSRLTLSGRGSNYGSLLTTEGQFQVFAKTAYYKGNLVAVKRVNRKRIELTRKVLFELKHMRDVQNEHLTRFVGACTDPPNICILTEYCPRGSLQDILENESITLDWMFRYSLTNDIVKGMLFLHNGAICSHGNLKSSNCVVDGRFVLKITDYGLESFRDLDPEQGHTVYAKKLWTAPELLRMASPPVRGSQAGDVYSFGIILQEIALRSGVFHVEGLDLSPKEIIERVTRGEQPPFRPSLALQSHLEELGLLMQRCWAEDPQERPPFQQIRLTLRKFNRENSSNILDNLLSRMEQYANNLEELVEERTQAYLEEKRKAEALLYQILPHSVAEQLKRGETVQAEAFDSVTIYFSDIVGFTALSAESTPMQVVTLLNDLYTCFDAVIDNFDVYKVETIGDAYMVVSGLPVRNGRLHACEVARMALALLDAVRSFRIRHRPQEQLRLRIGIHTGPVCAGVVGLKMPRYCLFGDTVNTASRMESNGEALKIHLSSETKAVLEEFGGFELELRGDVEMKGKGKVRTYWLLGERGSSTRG
Assay: Human NPRA cGMP activity assay (HTRF) in HEK293 cells overexpressing NPRA
Assay type: cell-based
Protocol: All sequences were verified by full-length sequencing performed by ACGT DNA Sequencing Services (Wheeling, IL). The target cDNA was cloned into pJTI R4 CMV-TO MCS pA vector and then co-transfected with pJT1R4 Int vector into Jump-in™ T-Rex™ HEK293 cells for mammalian inducible expression using Jump-in™ T-Rex™ HEK293 kit and Lipofectamine LTX and Plus Reagent following manufacturer's protocols, as briefly described below.
Jump-in™ T-Rex™ HEK293 cells were plated in a BioCOAT® poly-D-lysine coated 6-well plate (Becton Dickinson, cat no. 354413) at 1 million cells/well in 2 mL culture medium and incubated for 18 h at 37° C. and 5% CO2 to 50-70% confluence. A cDNA mix was made in a 50 mL tube by adding 1.5 μg target cDNA, 1.5 μg pJT1R4 Int vector, 3 μL Plus Reagent, and 300 μL Opti-MEM I sequentially into the tube. A reagent mix was made in a separate 50 mL tube by adding 7.5 μL Lipofectamine LTX into 300 μL Opti-MEM I. The mixtures were incubated for 5 min at room temperature. The cDNA mix was then transferred into the reagent mix, mixed well, and incubated for additional 30 min at room temperature. A 500 μL of cDNA/Lipofectamine complex was then transferred to the wells of the cell plate in which the culture medium was changed to 2 mL of transfection medium containing DMEM with 4.5 g/L D-glucose supplemented with 10% FBS-HI and 20 mM HEPES. Transfected cells were cultured for 48 h in an incubator at 37° C. and 5% CO2. A subclone or pool from each overexpressing cell line was maintained in culture medium with the addition of 2 mg/mL G418 sulfate for the clone selection based on its built-in resistance to G418 sulfate for at least 3 weeks with medium changed every 2-3 days.
NPRs were overexpressed in T-Rex™ HEK293 cells following the induction with 300 ng/mL tetracycline in culture medium for 48 h. Induced cell lines in an exponential growth phase were treated with 0.05% trypsin-EDTA for a few seconds at room temperature, harvested in cell medium containing FBS to neutralize the trypsin, counted, and cryopreserved at the density of 2 million cells/mL in cell preservation solution containing FBS-HI with 5% DMSO. Cryopreserved cells were stored at −80° C. for a few days prior to transferring to a liquid nitrogen tank. Induced cell lines were then used for suspension assays to measure the activity of polypeptides to stimulate cGMP production in cGMP assays or for the preparation of cell membranes to measure the binding activity of polypeptides in competitive radioligand binding assays, as described below.
Test polypeptides were added starting at 10 μM concentration and at 10-fold decreasing concentrations to obtain 8-point concentration-response curves (i.e., 10 μM to 1 pM). The quantity of cGMP generated was detected using HTRF® technology and normalized to maximum amount produced by 100 nM amidated rat ANP and the minimum amount produced by assay buffer. Detailed steps are outlined below.
Stock solutions of test polypeptides (2 mM) dissolved in DMSO were first diluted 100-fold in assay buffer containing HBSS with Ca^2+ and Mg^2+, 5 mM HEPES, 0.5 mM IBMX, and 0.1% BSA or 0.1% casein (pH 7.4). The polypeptides were further serially diluted in 1:10 dilution steps in assay buffer containing 0.1% BSA or 0.1% casein to generate 8-point 2× working stock solutions ranging from 20 μM to […].
A 10 μL cell suspension containing 4000 cells was plated in Costar® half-area white opaque 96-well plates (Corning, cat no. 3693). Then 10 μL of assay buffer (basal activity), 200 nM of amidated rat ANP (maximum activity) or 2× working stock solutions of test polypeptides were transferred into the plate. Final concentration of DMSO in each well was 0.5%. The plate was shaken for 15 sec and then incubated for 40 min at room temperature.
The cGMP generated was measured using cGMP kit following the manufacturer's directions, as described below.

[1] = cGMP Assay (EC50, pM) w/Casein hNPRA, assay buffer with 0.1% casein

CC[C@H](C)[C@@H]1NC(=O)[C@H](CCCNC(=N)N)NC(=O)[C@H](CC(=O)O)NC(=O)[C@H]([C@@H](C)CC)NC(=O)[C@H](CCCNC(=N)N)NC(=O)[C@H](CCCCN)NC(=O)CNC(=O)[C@H](Cc2ccccc2)NC(=O)[C@@H](NC(=O)[C@H](CO)NC(=O)[C@H](CO)NC(=O)[C@H](CCCNC(=N)N)NC(=O)[C@@H]2CCCN2C(=O)[C@H](CCCCN)NC(=O)[C@H](CCC(=O)O)NC(=O)CNC(=O)[C@H](CCCCN)NC(=O)[C@H](CCC(=O)O)NC(=O)[C@H](CCCCN)NC(=O)[C@H](CCC(=O)O)NC(=O)[C@H](CCCCN)NC(=O)[C@H](CCC(=O)O)NC(=O)CC[C@H](NC(=O)CCCCCCCCCCCCCCCCCCC(=O)O)C(=O)O)CSCSC[C@@H](C(=O)N2CCC[C@H]2C(=O)N[C@@H](CO)C(=O)N[C@@H](Cc2ccccc2)C(=O)N[C@@H](CCCNC(=N)N)C(=O)N[C@@H](Cc2c[nH]cn2)C(=O)NCC(=O)N[C@@H](CO)C(=O)N2CCC[C@H]2C(=O)N[C@@H](CO)C(=O)N[C@@H](CO)C(=O)NCC(=O)N[C@@H](C)C(=O)N2CCC[C@H]2C(=O)N2CCC[C@H]2C(=O)N2CCC[C@H]2C(=O)N[C@@H](CO)C(N)=O)NC(=O)CNC(=O)[C@H](CC(C)C)NC(=O)CNC(=O)[C@H](CO)NC(=O)[C@H](Cc2ccc(O)cc2)NC(=O)[C@H](CCCN)NC(=O)CNC1=O [Example 135]
EC50 (cGMP Assay (EC50, pM) w/BSA hNPRA, assay buffer with 0.1% BSA): 104000 pM | EC50 [1]: 497 pM

CC[C@H](C)[C@@H]1NC(=O)[C@H](CCCNC(=N)N)NC(=O)[C@H](CC(=O)O)NC(=O)[C@H]([C@@H](C)CC)NC(=O)[C@H](CCCNC(=N)N)NC(=O)CNC(=O)[C@H](Cc2c[nH]cn2)NC(=O)[C@H](Cc2ccccc2)NC(=O)[C@@H](NC(=O)[C@H](CO)NC(=O)[C@H](CO)NC(=O)[C@H](CCCNC(=N)N)NC(=O)[C@H](CCCNC(=N)N)NC(=O)[C@H](Cc2c[nH]cn2)NC(=O)[C@H](CO)NC(=O)CNC(=O)[C@H](CCCCN)NC(=O)[C@H](CCC(=O)O)NC(=O)[C@H](CCCCN)NC(=O)[C@H](CCC(=O)O)NC(=O)[C@H](CCCCN)NC(=O)[C@H](CCC(=O)O)NC(=O)CC[C@H](NC(=O)CCCCCCCCCCCCCCCCCCC(=O)O)C(=O)O)CSSC[C@@H](C(=O)N[C@@H](CC(N)=O)C(=O)N[C@@H](CO)C(=O)N[C@@H](Cc2ccccc2)C(=O)N[C@@H](CCCNC(=N)N)C(=O)N[C@@H](Cc2c[nH]cn2)C(N)=O)NC(=O)CNC(=O)[C@H](CC(C)C)NC(=O)CNC(=O)[C@H](CO)NC(=O)[C@H](CCC(N)=O)NC(=O)[C@H](C)NC(=O)[C@H](Cc2c[nH]cn2)NC1=O [Example 16] ({C20 diacid-γGlu}-EKEKEKGSHRRSSCFHGRIDRIHAQSGLGCNSFRH-NH2; disulfide 14-30)
EC50 (assay buffer with 0.1% casein, read-out: cGMP Assay (EC50, pM) w/Casein hNPRA): 807 pM

CC[C@H](C)[C@@H]1NC(=O)[C@H](CCCNC(=N)N)NC(=O)[C@H](CC(=O)O)NC(=O)[C@H]([C@@H](C)CC)NC(=O)[C@H](CCCNC(=N)N)NC(=O)CNC(=O)[C@H](Cc2ccncc2)NC(=O)[C@H](Cc2ccccc2)NC(=O)[C@@H](NC(=O)[C@H](CO)NC(=O)[C@H](CO)NC(=O)[C@H](CCCNC(=N)N)NC(=O)[C@H](CCCNC(=N)N)NC(=O)[C@H](CC(C)C)NC(=O)[C@H](CO)NC(=O)CNC(=O)[C@H](CCCCN)NC(=O)[C@H](CCC(=O)O)NC(=O)[C@H](CCCCN)NC(=O)[C@H](CCC(=O)O)NC(=O)[C@H](CCCCN)NC(=O)[C@H](CCC(=O)O)NC(=O)CC[C@H](NC(=O)CCCCCCCCCCCCCCCCCCC(=O)O)C(=O)O)CSSC[C@@H](C(=O)N[C@@H](CC(N)=O)C(=O)N[C@@H](CO)C(=O)N[C@@H](Cc2ccccc2)C(=O)N[C@@H](CCCNC(=N)N)C(=O)N[C@@H](Cc2ccc(O)cc2)C(N)=O)NC(=O)CNC(=O)[C@H](CC(C)C)NC(=O)CNC(=O)[C@H](CO)NC(=O)[C@H](CCC(N)=O)NC(=O)[C@H](C)NC(=O)CNC1=O [Example 13] ({C20 diacid-γGlu}-EKEKEKGSLRRSSCF[4Pal]GRIDRIGAQSGLGCNSFRY-NH2; disulfide 14-30)
EC50 (assay buffer with 0.1% BSA, read-out: cGMP Assay (EC50, pM) w/BSA hNPRA): 145000 pM

CC[C@H](C)[C@@H]1NC(=O)[C@H](CCCNC(=N)N)NC(=O)[C@H](CC(=O)O)NC(=O)[C@H]([C@@H](C)CC)NC(=O)[C@H](CCCNC(=N)N)NC(=O)[C@H](CCCCN)NC(=O)CNC(=O)[C@H](Cc2ccccc2)NC(=O)[C@@H](NC(=O)[C@H](CO)NC(=O)[C@H](CO)NC(=O)[C@H](CCCNC(=N)N)NC(=O)[C@@H]2CCCN2C(=O)[C@H](CCCCN)NC(=O)[C@H](CCC(=O)O)NC(=O)COCCOCCNC(=O)COCCOCCNC(=O)COCCOCCNC(=O)COCCOCCNC(=O)COCCOCCNC(=O)COCCOCCNC(=O)COCCOCCNC(=O)COCCOCCNC(=O)CNC(=O)[C@H](CCCCN)NC(=O)[C@H](CCC(=O)O)NC(=O)[C@H](CCCCN)NC(=O)[C@H](CCC(=O)O)NC(=O)[C@H](CCCCN)NC(=O)[C@H](CCC(=O)O)NC(=O)CC[C@H](NC(=O)CCCCCCCCCCCCCCCCCCC(=O)O)C(=O)O)CSCSC[C@@H](C(=O)N2CCC[C@H]2C(=O)N[C@@H](CO)C(=O)N[C@@H](Cc2ccccc2)C(=O)N[C@@H](CCCNC(=N)N)C(=O)N[C@@H](Cc2c[nH]cn2)C(=O)N[C@@H](CO)C(=O)NCC(=O)N[C@@H](CO)C(=O)N2CCC[C@H]2C(=O)N[C@@H](CO)C(=O)N[C@@H](CO)C(=O)NCC(=O)N[C@@H](C)C(=O)N2CCC[C@H]2C(=O)N2CCC[C@H]2C(=O)N2CCC[C@H]2C(=O)N[C@@H](CO)C(=O)NCC(N)=O)NC(=O)CNC(=O)[C@H](CC(C)C)NC(=O)CNC(=O)[C@H](CO)NC(=O)[C@H](Cc2ccc(O)cc2)NC(=O)[C@H](Cc2c[nH]cn2)NC(=O)CNC1=O [Example 126]
EC50 [1]: 1090 pM
